From patent US4071627A, “2-Oximino-tetrahydro-1,4-thiazin-5-one compounds and pesticidal carbamate derivatives” (priority 1976, dated 1978)

What was measured:
Assay type in all cases: in vivo
Set-up in all cases: key: A: excellent control; B: partial control; C: no control
[1] = test system: two-spotted mite (Tetranychus urticae Koch); experiment: Mite Foliage Spray Test; settings: 500 ppm, six days, adults and nymphs
Procedure: (§1) Suspensions of the test compounds were prepared by dissolving one gram of compound in 50 milliliters of acetone in which had been dissolved 0.1 gram (10 percent of the weight of compound) of an alkylphenoxy polyethoxyethanol surfactant, as an emulsifying or dispersing agent. The resulting solution was mixed into 150 milliliters of water to give roughly 200 milliliters of a suspension containing the compound in finely divided form. The thus-prepared stock suspension contained 0.5 percent by weight of test compound. The test concentrations in parts per million by weight employed in the tests described hereinbelow were obtained by appropriate dilutions of the stock suspension with water. The test procedures were as follows:
Adults and nymphal stages of the two-spotted mite (Tetranychus urticae Koch), reared on Tengergreen bean plants at 80±5 percent relative humidity, were the test organisms. Infested leaves from a stock culture were placed on the primary leaves of two bean plants 6 to 8 inches in height, growing in a 21/2 inch clay pot. 150-200 Mites, a sufficient number for testing, transferred from the excised leaves to the fresh plants in a period of 24 hours. Following the 24 hour transfer period, the excised leaves were removed from the infested plants. The test compounds were formulated by diluting the stock suspension with water to give a suspension containing 500 parts of test compound per million parts of final formulation. The potted plants (one pot per compound) were placed on a revolving turntable and sprayed with 100-110 milliliters of test compound formulation by use of a DeVilbiss spray gun set at 40 psig. air pressure. This application, which lasted 25 seconds, was sufficient to wet the plants to run-off. As a control, 100-110 milliliters of a water solution containing acetone and emulsifier in the same concentrations as the test compound formulation, but containing no test compound, were also sprayed on infested plants. The sprayed plants were held at 80±5 percent relative humidity for six days, after which a mortality count of motile forms was made. Microscopic examination for motile forms was made on the leaves of the test plants. Any individual which was capable of locomotion upon prodding was considering living.
(§2) In these tests the pesticidal activity of the compounds against aphid, mite, Southern Armyworm, Mexican Bean Beetle, and house fly was rated as follows: […]

[2] = test system: southern armyworm (Prodenia eridania, (Cram.)); experiment: Southern Armyworm Leaf Spray Test; settings: 500 ppm, three days, larvae
Procedure: as §1
Larvae of the southern armyworm (Prodenia eridania, (Cram.)), reared on Tendergreen bean plants at a temperature of 80°±5° F. and a relative humidity of 50±5 percent, constituted the test insects.
The test compounds were formulated by diluting the stock suspension with water to give a suspension containing 500 parts of test compound per million parts of final formulation. Potted Tendergreen bean plants of standard height and age were placed on a revolving turntable and sprayed with 100-110 milliliters of test compound formulation by use of a DeVilbiss spray gun set at 10 psig air pressure. This application, which lasted 25 seconds, was sufficient to wet plants to run-off. As a control, 100-110 milliliters of a water-acetone-emulsifier solution containing no test compound were also sprayed on infested plants. When dry, the paired leaves were separated and each one was placed in a 9 centimeter Petri dish lined with moistened filter paper. Five randomly selected larvae were introduced into each dish and the dishes were closed. The closed dishes were labeled and held at 80°-85° F. for three days. Although the larvae cound easily consume the whole leaf within 24 hours, no more food was added. Larvae which were unable to move the length of the body, even upon stimulation by prodding, were considered dead. Percent mortality was […] for various concentration levels.
as §2

[3] = test system: bean aphid (Aphis fabae Scop.); experiment: Bean Aphid Foliage Spray Test; settings: 500 ppm, 24 hours, adults and nymphs
Procedure: as §1
Adults and nymphal stages of the bean aphid (Aphis fabae Scop.) reared on potted dwarf nasturtium plants at 65°-70° F. and 50-70 percent relative humidity, constituted the test insects. For testing purposes, the number of aphids per pot was standardized to 100-150 by trimming plants containing excess aphids.
The test compounds were formulated by diluting the stock suspension with water to give a suspension containing 500 parts of test compound per million parts of final formulation.
The potted plants (one pot per compound tested) infested with 100-150 aphids, were placed on a revolving turntable and sprayed with 100-110 milliliters of test compound formulated by use of a DeVilbiss spray gun set at 40 psig. air pressure. This application, which lasted 25 seconds, was sufficient to wet the plants to run-off. As a control, 100-110 milliliters of a water-acetone-emulsifier solution containing no test compound were also sprayed on infested plants. After spraying, the pots were placed on their sides on a sheet of white standard mimeograph paper which had been previously ruled to facilitate counting. Temperature and humidity in the test room during the 24 hour holding period were 65°-70° F. and 50-70 percent, respectively. Aphids which fell onto the paper and were unable to remain standing after being uprighted were considered dead. Aphids remaining on the plants were observed closely for movement and those which were unable to move the length of the body upon stimulation by prodding were considered dead. Percent mortality was recorded for various concentration levels.
as §2

[4] = test system: house flies (Musca domestica, L.); experiment: Fly Bait Test; settings: 500 ppm, 24 hours, adults
Procedure: as §1
Four to six day old adult house flies (Musca domestica, L.), reared according to the specifications of the Chemical Specialities Manufacturing Association (Blue Book, McNair-Dorland Co., N.Y. 1954; pages 243-244, 261) under controlled conditions of 80°±5° F. and 50±5 percent relative humidity, were the test insects. The flies were immobilized by anesthetizing with carbon dioxide and 25 immobilized individuals, males and females, were transferred to a cage consisting of a standard food strainer about 5 inches in diameter which was inverted over a wrapping-paper-covered surface. The test compounds were formulated by diluting the stock suspension with a 10 percent (by weight) sugar solution to give a suspension containing 500 parts of test compound per million parts of final formulation, by weight. Ten milliliters of the test formulation were added to a souffle cup containing a 1-inch square of an absorbent cotton pad. This bait cup was introduced and centered on the blotting paper under the food strainer prior to admitting the anesthetized flies. The caged flies were allowed to feed on the bait for 24 hours, at a temperature of 80°±5° F. and the relative humidity of 50±5 percent.
as §2

[5] = test system: Mexican bean beetle (Epilachna varivestis, Muls.); experiment: Mexican Bean Beetle Leaf Spray Test; settings: 500 ppm, three days, fourth instar larvae
Procedure: as §1
Fourth instar larvae of the Mexican bean beetle (Epilachna varivestis, Muls.), reared on Tendergreen bean plants at a temperature of 80°±5° F. and 50±5 percent relative humidity, were the test insects.
The test compounds were formulated by diluting the stock suspension with water to give a suspension containing 500 parts of test compound per million parts of final formation. Potted Tendergreen bean plants of standard height and age were placed on a revolving turntable and sprayed with 100-110 milliliters of test compound formulated by use of a DeVilbiss spray gun set at 10 psig air pressure. This application, which lasted 25 seconds, was sufficient to wet plants to run-off. As a control, 100-110 milliliters of a water-acetone-emulsifier solution containing no test compound were also sprayed on infested plants. When dry, the paired leaves were separated and each was placed in a 9 centimeter Petri dish lined with moistened filter paper. Five randomly selected larvae were introduced into each dish, and the dishes were closed. The closed dishes were labeled and held at a temperature of 80°±5° F. for three days. Although the larvae could easily consume the leaf within 24 to 48 hours, no more food was added. Larvae which were unable to move the length of the body, even upon stimulation, were considered dead.
as §2

Structure (SMILES)	Biological Activity, Mite [1]	Biological Activity, Southern Armyworm [2]	Biological Activity, Aphid [3]	Biological Activity, House Fly [4]	Biological Activity, Mexican Bean Beetle [5]
CNC(=O)ON=C1SCC(=O)N(C(C)C)C1C (stereo not drawn) [2-[O-(Methylcarbamoyl)oximino]-4-isopropyl-3-methyltetrahydro-1,4-thiazin-5-one]	B	C	C	A	C
CC(C)CN1C(=O)CSC(=NO)C1C (stereo not drawn) [2-Oximino-4-isobutyl-3-methyltetrahydro-1,4-thiazin-5-one]	C	C	C	C	C
CCN1C(=O)CSC(=NO)C1C (stereo not drawn) [2-Oximino-4-ethyl-3-methyltetrahydro-1,4-thiazin-5-one]	C	C	C	C	C
CC(=O)N(C)C(=O)ON=C1SCC(=O)N(C)C1C (stereo not drawn) [2-[O-(N-Acetyl-N-methylcarbamoyl)oximino]-3,4-dimethyltetrahydro-1,4-thiazin-5-one]	C	A	C	C	C
CCN1C(=O)CSC(=NOC(=O)NC)C1C (stereo not drawn) [2-[O-(Methylcarbamoyl)oximino]-4-ethyl-3-methyltetrahydro-1,4-thiazin-5-one]	A	B	B	A	B
CN(SN1CCOCC1)C(=O)ON=C1SCC(=O)NC1(C)C [2-[O-(N-Morpholinosulfenyl-N-methylcarbamoyl)oximino]-3,3-dimethyltetrahydro-1,4-thiazin-5-one]		A	A	A	A
CCCCN1C(=O)CSC(=NO)C1C (stereo not drawn) [2-Oximino-4-butyl-3-methyltetrahydro-1,4-thiazin-5-one]	C	C	C	C	C
CN1C(=O)CSC(=NO)C1(C)C [2-Oximino-3,3,4-trimethyltetrahydro-1,4-thiazin-5-one]	C	C	C	C	C
CNC(=O)ON=C1SCC(=O)N(C)C1(C)C [2-[O-(Methylcarbamoyl)oximino]-3,3,4-trimethyltetrahydro-1,4-thiazin-5-one]	A	B	B	A	A
CC1C(=NO)SCC(=O)N1C (stereo not drawn) [2-Oximino-3,4-dimethyltetrahydro-1,4-thiazin-5-one]	C	C		C	C
CCCCN1C(=O)CSC(=NOC(=O)NC)C1C (stereo not drawn) [2-[O-(Methylcarbamoyl)oximino]-4-butyl-3-methyltetrahydro-1,4-thiazin-5-one]	C	C	C	B	B
CN(C)SN(C)C(=O)ON=C1SCC(=O)NC1(C)C [2-[O-(N-Dimethylaminosulfenyl-N-methylcarbamoyl)oximino]-3,3-dimethyltetrahydro-1,4-thiazin-5-one]	A	A	A	A	A
CNC(=O)ON=C1SCC(=O)N(C)C1C (stereo not drawn) [2-[O-(methylcarbamoyl)oximino]-3,4-dimethyltetrahydro-1,4-thiazin-5-one]	A	C	A	A	A
